From paper PMC10974084, “Combination of Betulinic Acid Fragments and Carbonic Anhydrase Inhibitors—A New Drug Targeting Approach” (Pharmaceutics, 2024)

Assays:
hypoxia-induced hCA IX = hypoxia-induced hCA IX (Homo sapiens, UniProt Q16790); test: Cell-based hCA IX inhibition, Wilbur-Anderson method, hypoxic Hs578T cells; details: 20 µM, 3 h, vs untreated hypoxic cells
A375 melanoma cells = test: SRB cytotoxicity assay, A375; format: cell-based; details: Homo sapiens, A-375; SRB assay, 96 h incubation, mean ± SD; read-out: IC50 A375
Protocol: (§1) All of the compounds were dissolved in dimethyl sulfoxide (DMSO) to achieve a 20 mM stock solution. Cells were seeded in cell culture flasks 24 h before treatment. The treatment was performed for 24 h.
(§2) The cytotoxicity of the drugs was determined in 2D tumor models using sulforhodamine B (SRB) assays. Treatment started 24 h after seeding the tumor cells in 96-well plates as previously described.

[1] = target: recombinant human carbonic anhydrase IX (Homo sapiens, UniProt Q16790); test: hCA IX esterase assay with p-nitrophenyl acetate; details: p-nitrophenyl acetate substrate, competitive inhibition, pH 7.5, 20 °C
Protocol: In this measurement, the enzymatically catalyzed hydrolysis of p-nitrophenyl acetate to p-nitrophenol was investigated. […] This was followed by measurement of the v-S-characteristics with inhibitor. […] For each run, 2 experimental series (biological replicate) were prepared simultaneously and measured for 10 min at a measurement interval of 8 s, also as a two-fold determination (technical replicate). […] The resulting reaction velocities, calculated from a calibration curve with p-nitrophenole under the same conditions, were plotted against the substrate concentration. The kinetic evaluation for competitive inhibition was then performed with the program GraphPad Prism.

[2] = system: A2780 ovarian cancer cells; test: SRB cytotoxicity assay, A2780; format: cell-based; details: Homo sapiens, A2780; SRB assay, 96 h incubation, mean ± SD; read-out: IC50 A2780
Protocol: as §1, §2

[3] = system: MCF-7 breast cancer cells; test: SRB cytotoxicity assay, MCF-7; format: cell-based; details: Homo sapiens, MCF7; SRB assay, 96 h incubation, mean ± SD; read-out: IC50 MCF-7
Protocol: as §1, §2

Hs578T spheroids = system: Hs578T spheroids; set-up: method as in PMID 36780832; details: Hs578T versus MDA-MB-231 spheroids; cited from earlier work

inhibition of hypoxia-induced hCA IX activity (relative WAU) (hypoxia-induced hCA IX)	Ki Values of hCA IX [1]	Compound	IC50 (A375 melanoma cells) [µM]	IC50 [2] [µM]	IC50 [3] [µM]	resistance of Hs578T spheroids (Hs578T spheroids) [fold]
no potential to inhibit hCA IX activity	n.i.	C=C(C)[C@@H]1CC[C@]2(C(=O)O)CC[C@]3(C)[C@H](CC[C@@H]4[C@@]5(C)CC[C@H](O)C(C)(C)[C@@H]5CC[C@]43C)[C@@H]12 [BA, betulinic acid]	13.1 ± 0.9	12.5 ± 1.8	13 ± 1	–
–	–	COc1cccc2c1C(=O)c1c(O)c3c(c(O)c1C2=O)C[C@@](O)(C(=O)CO)C[C@@H]3O[C@H]1C[C@H](N)[C@H](O)[C@H](C)O1 [doxorubicin]	–	–	–	60
–	–	CC(=O)O[C@H]1C(=O)[C@@]2(C)[C@H]([C@H](OC(=O)c3ccccc3)[C@]3(O)C[C@H](OC(=O)[C@H](O)[C@@H](NC(=O)c4ccccc4)c4ccccc4)C(C)=C1C3(C)C)[C@]1(OC(C)=O)CO[C@@H]1C[C@@H]2O [paclitaxel]	–	–	–	20
